# Laboratory results taken from the supplement of paper PMC10307832.
# How the values were obtained:
# Assay in all cases: relative viability (nuclei count vs DMSO), 5 days (fraction); higher = more cells survive
# Carboplatin + Alpelisib = compound: C1CC(C1)(C(=O)O)C(=O)O.[NH2-].[NH2-].[Pt+2] [Carboplatin] + Cc1nc(NC(=O)N2CCC[C@H]2C(N)=O)sc1-c1ccnc(C(C)(C)C(F)(F)F)c1 [Alpelisib] (partner 2 µM)
# Outline: (§1)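 Lung cancer cell lines were pin-tool dosed in 1536-well plates on the day after seeding, with either a lone drug or a fixed anchor-drug dose plus five library-drug doses (not always all listed) in √10 steps. Nuclei were counted on 4× images after 5 days. Relative viability is the ratio of treated-well to vehicle-well nuclei counts, with each value a median of duplicate plates.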
# GSK126 + Lapatinib = compound: CC[C@H](C)N1C=C(C2=C(C=C(C=C21)C3=CN=C(C=C3)N4CCNCC4)C(=O)NCC5=C(C=C(NC5=O)C)C)C [GSK126] + CS(=O)(=O)CCNCc1ccc(-c2ccc3ncnc(Nc4ccc(OCc5cccc(F)c5)c(Cl)c4)c3c2)o1 [Lapatinib] (partner 2 µM)
# Outline: as §1
# GSK126 + Trametinib = compound: CC[C@H](C)N1C=C(C2=C(C=C(C=C21)C3=CN=C(C=C3)N4CCNCC4)C(=O)NCC5=C(C=C(NC5=O)C)C)C [GSK126] + CC(=O)Nc1cccc(-n2c(=O)n(C3CC3)c(=O)c3c(Nc4ccc(I)cc4F)n(C)c(=O)c(C)c32)c1 [Trametinib] (partner 0.02 µM)
# Outline: as §1
# Carboplatin + Olaparib = compound: C1CC(C1)(C(=O)O)C(=O)O.[NH2-].[NH2-].[Pt+2] [Carboplatin] + O=C(c1cc(Cc2n[nH]c(=O)c3ccccc23)ccc1F)N1CCN(C(=O)C2CC2)CC1 [Olaparib] (partner 8 µM)
# Outline: as §1
Cell Line,relative viability (Carboplatin + Alpelisib; first compound 0.08 µM),relative viability (Carboplatin + Alpelisib; first compound 0.253 µM),relative viability (Carboplatin + Alpelisib; first compound 0.8 µM),relative viability (Carboplatin + Alpelisib; first compound 2.53 µM),relative viability (Carboplatin + Alpelisib; first compound 8 µM),relative viability (GSK126 + Lapatinib; first compound 0.08 µM),relative viability (GSK126 + Lapatinib; first compound 0.253 µM),relative viability (GSK126 + Lapatinib; first compound 0.8 µM),relative viability (GSK126 + Lapatinib; first compound 2.53 µM),relative viability (GSK126 + Lapatinib; first compound 8 µM),relative viability (GSK126 + Trametinib; first compound 0.08 µM),relative viability (GSK126 + Trametinib; first compound 0.253 µM),relative viability (GSK126 + Trametinib; first compound 0.8 µM),relative viability (GSK126 + Trametinib; first compound 2.53 µM),relative viability (GSK126 + Trametinib; first compound 8 µM),relative viability (Carboplatin + Olaparib; first compound 0.08 µM),relative viability (Carboplatin + Olaparib; first compound 0.253 µM),relative viability (Carboplatin + Olaparib; first compound 0.8 µM),relative viability (Carboplatin + Olaparib; first compound 2.53 µM),relative viability (Carboplatin + Olaparib; first compound 8 µM)
COR-L23,0.724,0.721,0.74,0.663,0.272,1.04,0.958,0.943,0.914,0.818,0.837,0.563,0.499,0.557,0.737,0.329,0.3,0.301,0.246,0.157
COR-L 105,1.01,1.07,0.893,0.959,0.566,0.35,0.371,0.39,0.372,0.339,0.453,0.424,0.467,0.439,0.466,0.766,0.756,0.518,0.544,0.456
EKVX,0.908,0.877,0.743,0.783,0.87,0.226,0.22,0.211,0.203,0.221,0.377,0.446,0.354,0.362,0.268,0.856,0.81,0.872,0.734,0.671
EMC-BAC-2,0.816,0.719,0.762,0.734,0.714,0.913,0.899,0.89,0.88,0.944,0.849,0.832,0.92,0.676,0.859,0.483,0.484,0.447,0.461,0.385
EPLC-272H,0.966,0.931,0.936,0.986,0.843,0.995,0.975,0.851,1.06,0.915,0.353,0.252,0.279,0.312,0.258,0.857,0.777,0.798,0.73,0.527
H3255,0.685,0.698,0.673,0.657,0.575,0.24,0.243,0.302,0.272,0.269,0.685,0.628,0.639,0.546,0.571,0.567,0.643,0.522,0.531,0.434
HARA,0.814,0.812,0.714,0.719,0.73,0.734,0.602,0.736,0.804,0.807,0.755,0.771,0.587,0.613,0.621,0.881,0.794,0.806,0.775,0.692
HCC-15,0.93,0.93,0.84,0.761,0.707,0.841,0.888,0.806,0.785,0.727,0.425,0.409,0.386,0.382,0.359,0.664,0.729,0.693,0.57,0.492
HCC-44,0.904,0.887,0.733,0.717,0.635,0.998,1.07,1.04,0.846,1.02,1.08,1.04,1.06,1.03,1.06,1.02,0.93,0.972,0.944,0.952
HCC-78,0.291,0.391,0.317,0.285,0.33,0.713,1.06,0.886,0.711,0.722,0.585,0.792,0.653,0.696,0.592,0.888,0.851,0.574,0.684,0.726
HCC-366,0.476,0.552,0.344,0.294,0.314,1.02,0.948,1.08,1.09,1.12,0.391,0.357,0.343,0.309,0.337,0.387,0.363,0.364,0.288,0.208
HCC-827,1.07,0.962,0.9,0.944,0.893,0.189,0.179,0.19,0.152,0.197,0.478,0.496,0.54,0.635,0.531,0.61,0.651,0.639,0.593,0.564
HOP-62,0.746,0.991,1.09,0.922,0.77,1.17,1.05,1.07,1.06,0.937,0.406,0.411,0.357,0.383,0.375,0.391,0.398,0.444,0.506,0.255
LC-2-ad,0.876,0.906,0.88,0.882,0.786,1.05,1.03,0.9,0.894,1.05,0.926,0.9,0.91,0.885,0.957,0.699,0.7,0.666,0.675,0.522
LCLC-97TM1,0.262,,0.25,0.256,0.199,1.22,,1.11,1.66,0.841,0.205,0.2,0.204,0.211,0.209,0.334,0.524,0.353,0.506,0.332
LK-2,1.41,1.23,0.837,0.961,1.09,0.947,0.952,0.876,0.916,0.673,0.861,0.817,0.779,0.857,0.575,0.743,0.702,0.726,0.65,0.844
LOU-NH91,0.797,0.731,0.7,0.688,0.688,0.812,0.77,0.755,0.882,0.871,0.813,0.771,0.765,0.821,0.761,0.955,0.973,0.873,0.831,0.844
LU99A,0.623,0.584,0.493,0.522,0.365,1.07,1,0.913,1,0.99,0.631,0.519,0.547,0.552,0.546,0.296,0.272,0.253,0.236,0.214
LXF-289,1.05,1.12,1.01,0.975,0.995,0.92,0.84,0.894,0.885,0.881,0.66,0.665,0.7,0.611,0.693,1.05,1.1,1.08,1.05,0.996
NCI-H23,0.659,0.75,0.623,0.681,0.635,1.26,1.02,1.02,1.22,1.2,0.434,0.378,0.407,0.551,0.391,0.4,0.31,0.281,0.28,0.24
NCI-H322M,0.74,0.574,0.605,0.739,0.701,0.616,0.638,0.604,0.654,0.66,0.499,0.478,0.482,0.548,0.552,0.761,0.818,0.779,0.686,0.65
NCI-H358,1.14,0.881,0.845,0.824,0.671,0.487,0.461,0.525,0.454,0.51,0.15,0.141,0.158,0.12,0.138,0.713,0.636,0.593,0.498,0.43
NCI-H460,0.462,0.424,0.325,0.322,0.0696,0.971,1.03,0.879,1.14,1.1,0.422,0.153,0.121,0.11,0.195,0.444,0.47,0.253,0.188,0.187
NCI-H520,0.894,1.06,0.897,0.908,0.737,1.09,0.713,0.722,0.898,0.922,0.748,0.665,0.563,0.807,0.817,0.408,0.253,0.328,0.313,0.287
NCI-H596,0.475,0.574,0.458,0.423,0.445,1.11,0.932,0.951,1.11,1.08,0.803,0.687,0.697,0.862,0.733,0.6,0.617,0.623,0.601,0.585
NCI-H647,1.23,1.14,1.23,1.12,0.771,1.22,1.01,0.927,1.11,0.865,0.55,0.461,0.381,0.44,0.413,0.631,0.543,0.53,0.431,0.222
NCI-H650,1.13,1,1.06,0.856,0.757,0.833,0.838,0.97,0.978,0.955,1.02,0.891,0.919,0.945,0.994,0.419,0.388,0.37,0.365,0.285
